Assay results as given in the SangsterLogP compilation.

logP	Compound
2.18	C=C(C)C(=O)OCC(O)COc1ccccc1 (stereo unspecified)
0.79	C=C(C)C(=O)OC
1.38	COC(C(=O)c1ccccc1)c1ccccc1 (stereo unspecified)
3.46	O=C(OOC(=O)c1ccccc1)c1ccccc1
3.31	C=C(C)C(=O)OCC(O)COc1cccc2ccccc12 (stereo unspecified)
1.88	C=C(C)C(=O)OCCOCCOCCOC(=O)C(=C)C
3.77	C=C(C)C(=O)OCC(C)(O)COc1cccc2ccccc12 (stereo unspecified)
1.09	Cc1ccc(N(CCO)CCO)cc1
2.18	C=Cc1ccc(C(=O)O)cc1
1.5	C=C(C)C(=O)OCC

Compound	logP
C=C(C)C(=O)OCC(CC)CCCC (stereo unspecified)	4.67
